Measurements from ChEMBL document CHEMBL1201862, “PubChem BioAssay data set” (2004).
Activity calls are given as the source filed them.

Legend:
Escherichia coli [1] = assay: microbe, parasite or virus in culture
Escherichia coli [2] = assay: microbe, parasite or virus in culture; remark: listed apart in the source
[3] = NIH-3T3 fibroblast cytotoxicity, dose response, cytotoxicity control, cell-based, fluorescence, Alamar Blue, secondary assay (AID 2327); type: functional;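 also: NIH-3T3 mouse fibroblasts cultured with fluconazole at 8 µg/mL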
[4] = target: ATP-dependent molecular chaperone HSP82 (Candida albicans (strain WO-1) (Yeast), UniProt C4YTQ8); assay: steroid-induced GRE reporter decrease in yeast – S. cerevisiae, luminescence, Hsp90 inhibitor project, dose response (AID 2400); type: functional, cell-based;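 also: beta-galactosidase luminescence from glucocorticoid response element reporter as proxy for Hsp90 function; inhibitor potency where signal loss means Hsp90 inhibition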
Sequence of ATP-dependent molecular chaperone HSP82 (C4YTQ8 whole entry): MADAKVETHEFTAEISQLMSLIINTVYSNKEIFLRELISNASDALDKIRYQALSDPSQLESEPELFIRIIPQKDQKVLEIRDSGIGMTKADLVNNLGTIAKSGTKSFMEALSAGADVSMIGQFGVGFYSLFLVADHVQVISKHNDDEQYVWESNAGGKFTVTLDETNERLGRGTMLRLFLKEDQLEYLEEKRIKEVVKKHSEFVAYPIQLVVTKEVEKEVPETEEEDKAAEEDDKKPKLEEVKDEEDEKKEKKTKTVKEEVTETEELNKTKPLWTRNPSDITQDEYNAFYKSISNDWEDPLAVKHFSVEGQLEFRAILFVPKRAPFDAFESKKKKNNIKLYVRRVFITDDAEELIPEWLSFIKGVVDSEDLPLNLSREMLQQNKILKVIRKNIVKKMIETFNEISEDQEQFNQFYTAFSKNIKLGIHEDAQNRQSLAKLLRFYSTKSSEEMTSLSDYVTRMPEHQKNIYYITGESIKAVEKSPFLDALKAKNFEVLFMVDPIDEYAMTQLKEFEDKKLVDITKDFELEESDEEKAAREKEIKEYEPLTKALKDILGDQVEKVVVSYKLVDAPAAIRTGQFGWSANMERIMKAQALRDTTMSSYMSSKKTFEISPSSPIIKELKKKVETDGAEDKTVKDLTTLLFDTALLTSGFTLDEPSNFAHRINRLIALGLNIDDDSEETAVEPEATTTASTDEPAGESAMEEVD

[5] = target: T1, Serine/threonine-protein phosphatase (Candida dubliniensis (strain CD36 / CBS 7987 / NCPF 3949 / NRRLY-17841) (Yeast), UniProt B9W6M3); assay: blockers of CaCl2-induced CDRE-lacZ signaling – S. cerevisiae, luminescence, secondary, dose response (AID 2388); type: functional, cell-based;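 also: yeast reporter cells carrying a calcineurin-responsive lacZ construct stimulated with calcium chloride; luminescent beta-galactosidase reporter signal in whole cells rather than isolated phosphatase activity; potency for inhibition where a drop in reporter signal means calcineurin blockade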
T1 sequence (B9W6M3 whole entry): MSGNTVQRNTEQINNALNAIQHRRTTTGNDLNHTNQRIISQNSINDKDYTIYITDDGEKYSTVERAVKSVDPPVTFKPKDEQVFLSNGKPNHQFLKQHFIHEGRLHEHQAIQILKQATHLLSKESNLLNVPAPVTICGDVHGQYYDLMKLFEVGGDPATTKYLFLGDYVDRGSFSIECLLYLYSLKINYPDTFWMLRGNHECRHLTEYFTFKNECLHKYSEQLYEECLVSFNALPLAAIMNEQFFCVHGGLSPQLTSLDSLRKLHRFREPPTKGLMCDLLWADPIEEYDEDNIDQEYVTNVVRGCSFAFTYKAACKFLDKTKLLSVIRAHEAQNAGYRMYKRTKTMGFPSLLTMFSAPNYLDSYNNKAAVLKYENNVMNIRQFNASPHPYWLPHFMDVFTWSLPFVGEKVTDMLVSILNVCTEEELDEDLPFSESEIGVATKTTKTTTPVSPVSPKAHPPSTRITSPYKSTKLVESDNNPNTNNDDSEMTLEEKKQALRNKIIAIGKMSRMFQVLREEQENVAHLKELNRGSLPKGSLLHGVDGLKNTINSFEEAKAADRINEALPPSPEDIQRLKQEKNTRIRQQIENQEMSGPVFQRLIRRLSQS

[6] = fluconazole-exposed Candida albicans growth modulators – fluorescence, retest, confirmation (AID 2467); type: functional, cell-based
[7] = target: T2, Heat shock factor protein 1 (Mus musculus, UniProt P38532); assay: decrease of HSF1-responsive luciferase luminescence – cell-based, NIH3T3, dose retest, confirmation (AID 2382); type: functional;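 also: NIH3T3 fibroblasts with HSF1-driven luciferase reporter stressed by proteasome inhibitor MG132; luminescence from HSF1-driven luciferase expression after 8 hours of MG132 stress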
T2 sequence (P38532 whole entry): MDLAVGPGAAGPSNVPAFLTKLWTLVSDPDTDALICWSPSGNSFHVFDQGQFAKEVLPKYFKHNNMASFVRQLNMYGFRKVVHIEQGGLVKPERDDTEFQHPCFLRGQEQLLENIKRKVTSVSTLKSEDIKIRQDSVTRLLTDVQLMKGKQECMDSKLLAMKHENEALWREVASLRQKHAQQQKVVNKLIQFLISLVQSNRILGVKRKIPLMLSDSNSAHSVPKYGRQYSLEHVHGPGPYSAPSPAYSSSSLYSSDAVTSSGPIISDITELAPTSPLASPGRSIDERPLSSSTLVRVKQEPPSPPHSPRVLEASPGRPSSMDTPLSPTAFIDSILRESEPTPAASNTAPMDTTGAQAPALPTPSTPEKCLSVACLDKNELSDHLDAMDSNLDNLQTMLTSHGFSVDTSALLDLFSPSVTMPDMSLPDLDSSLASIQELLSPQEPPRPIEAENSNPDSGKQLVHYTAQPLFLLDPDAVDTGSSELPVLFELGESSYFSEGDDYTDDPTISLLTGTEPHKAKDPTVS

[8] = target: T3, Luciferin 4-monooxygenase (Photuris pensylvanica, UniProt Q27757); assay: inhibition of Cell Titer Glo luciferase signal – biochemical, luminescence, cherry-picks, counter-screen for HSF-1 reporter inhibitor project, dose response (AID 588847)
T3 sequence (Q27757 whole entry): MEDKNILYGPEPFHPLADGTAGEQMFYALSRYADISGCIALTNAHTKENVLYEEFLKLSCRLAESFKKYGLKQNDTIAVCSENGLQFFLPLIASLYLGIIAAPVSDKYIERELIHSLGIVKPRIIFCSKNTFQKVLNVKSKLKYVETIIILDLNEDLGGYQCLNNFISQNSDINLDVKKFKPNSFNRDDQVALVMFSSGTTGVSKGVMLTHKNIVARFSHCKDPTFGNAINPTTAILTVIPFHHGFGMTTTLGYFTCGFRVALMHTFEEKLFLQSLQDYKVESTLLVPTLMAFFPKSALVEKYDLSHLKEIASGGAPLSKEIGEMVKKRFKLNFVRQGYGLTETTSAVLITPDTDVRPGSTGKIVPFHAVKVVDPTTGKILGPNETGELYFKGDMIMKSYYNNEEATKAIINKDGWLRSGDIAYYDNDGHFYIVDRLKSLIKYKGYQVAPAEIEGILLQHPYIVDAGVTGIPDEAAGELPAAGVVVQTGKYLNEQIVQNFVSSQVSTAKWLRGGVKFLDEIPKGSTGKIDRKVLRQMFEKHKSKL

[9] = target: T4, Long-chain-fatty-acid--AMP ligase FadD28 (Mycobacterium tuberculosis, UniProt P9WQ59); assay: Fluorescence polarization aasay to screen for inhibitors that compete for the binding of FadD28 to a bisubstrate Measured in Biochemical System Using Plate Reader - 2147-01_Inhibitor_Dose_CherryPick_Activity.; type: functional, Mycobacterium tuberculosis H37Rv
T4 sequence (P9WQ59 whole entry): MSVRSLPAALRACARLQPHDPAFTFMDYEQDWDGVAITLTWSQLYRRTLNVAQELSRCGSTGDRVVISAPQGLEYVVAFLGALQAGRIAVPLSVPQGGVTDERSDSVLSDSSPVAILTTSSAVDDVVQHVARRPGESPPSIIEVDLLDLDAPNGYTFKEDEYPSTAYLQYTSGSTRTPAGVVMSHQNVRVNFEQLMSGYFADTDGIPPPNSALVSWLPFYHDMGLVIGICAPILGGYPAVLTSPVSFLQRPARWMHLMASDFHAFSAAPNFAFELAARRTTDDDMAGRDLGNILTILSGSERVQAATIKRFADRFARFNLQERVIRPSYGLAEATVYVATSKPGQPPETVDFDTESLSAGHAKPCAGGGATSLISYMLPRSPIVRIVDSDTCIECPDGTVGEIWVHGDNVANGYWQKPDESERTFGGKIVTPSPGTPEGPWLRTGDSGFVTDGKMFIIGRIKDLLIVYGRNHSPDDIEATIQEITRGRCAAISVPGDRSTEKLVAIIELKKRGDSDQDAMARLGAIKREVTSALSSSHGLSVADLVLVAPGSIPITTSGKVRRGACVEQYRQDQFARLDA

[10] = target: T5, Rac GTPase-activating protein 1 (Homo sapiens, UniProt Q9H0H5); assay: blockers of MgcRacGAP-driven Rac1 GTP hydrolysis – biochemical, ADP Hunter fluorescence, primary and confirmatory, confirmation (AID 624330); type: functional
T5 sequence (Q9H0H5 whole entry): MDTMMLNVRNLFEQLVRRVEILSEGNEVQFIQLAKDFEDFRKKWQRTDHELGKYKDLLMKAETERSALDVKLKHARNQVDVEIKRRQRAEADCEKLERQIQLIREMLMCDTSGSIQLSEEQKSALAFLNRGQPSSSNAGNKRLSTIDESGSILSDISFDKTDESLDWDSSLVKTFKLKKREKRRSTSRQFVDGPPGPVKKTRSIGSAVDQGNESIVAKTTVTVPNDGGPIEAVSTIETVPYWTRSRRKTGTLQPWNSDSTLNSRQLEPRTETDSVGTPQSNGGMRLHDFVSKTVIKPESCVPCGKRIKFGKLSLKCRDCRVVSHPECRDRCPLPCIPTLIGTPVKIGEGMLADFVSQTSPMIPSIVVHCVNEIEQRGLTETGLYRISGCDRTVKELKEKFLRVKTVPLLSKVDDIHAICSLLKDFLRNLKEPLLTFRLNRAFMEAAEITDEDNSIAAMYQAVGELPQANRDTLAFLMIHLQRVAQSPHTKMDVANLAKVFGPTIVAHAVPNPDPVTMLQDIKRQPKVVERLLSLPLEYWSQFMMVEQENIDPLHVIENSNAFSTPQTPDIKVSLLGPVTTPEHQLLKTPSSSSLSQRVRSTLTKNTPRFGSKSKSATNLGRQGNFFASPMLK

[11] = target: T6, Microphthalmia-associated transcription factor (Homo sapiens, UniProt O75030); assay: reducers of TRPM1 reporter luminescence, concentration series – cell-based, SK-MEL-5, cherry-picked, set 3, MITF inhibitor project, dose response (AID 493073); type: functional;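 also: SK-MEL-5 melanoma cells with luciferase driven by the MITF target TRPM1 promoter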
T6 sequence (O75030 whole entry): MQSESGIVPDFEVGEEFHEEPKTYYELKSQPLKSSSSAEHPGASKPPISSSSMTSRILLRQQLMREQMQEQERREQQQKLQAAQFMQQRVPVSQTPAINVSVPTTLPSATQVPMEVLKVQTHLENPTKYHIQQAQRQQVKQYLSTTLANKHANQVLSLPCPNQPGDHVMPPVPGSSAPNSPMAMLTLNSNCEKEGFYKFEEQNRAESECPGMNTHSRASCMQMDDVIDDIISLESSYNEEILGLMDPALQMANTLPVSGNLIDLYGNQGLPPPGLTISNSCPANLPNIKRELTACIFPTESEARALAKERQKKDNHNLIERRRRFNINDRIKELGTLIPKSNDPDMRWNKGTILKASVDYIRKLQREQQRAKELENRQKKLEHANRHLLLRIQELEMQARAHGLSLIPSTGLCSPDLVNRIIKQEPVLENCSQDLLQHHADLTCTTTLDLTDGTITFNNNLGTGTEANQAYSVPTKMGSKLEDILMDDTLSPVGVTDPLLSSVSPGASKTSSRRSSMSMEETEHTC

Leucine aminopeptidase = target: T7, Leucine aminopeptidase (Plasmodium falciparum 3D7, UniProt Q8IL11); assay: P. falciparum M17LAP inhibitors, primary screen, biochemical, fluorogenic H-Leu-NHMec substrate, 1536-well (AID 1619); type: functional
T7 sequence (Q8IL11 whole entry): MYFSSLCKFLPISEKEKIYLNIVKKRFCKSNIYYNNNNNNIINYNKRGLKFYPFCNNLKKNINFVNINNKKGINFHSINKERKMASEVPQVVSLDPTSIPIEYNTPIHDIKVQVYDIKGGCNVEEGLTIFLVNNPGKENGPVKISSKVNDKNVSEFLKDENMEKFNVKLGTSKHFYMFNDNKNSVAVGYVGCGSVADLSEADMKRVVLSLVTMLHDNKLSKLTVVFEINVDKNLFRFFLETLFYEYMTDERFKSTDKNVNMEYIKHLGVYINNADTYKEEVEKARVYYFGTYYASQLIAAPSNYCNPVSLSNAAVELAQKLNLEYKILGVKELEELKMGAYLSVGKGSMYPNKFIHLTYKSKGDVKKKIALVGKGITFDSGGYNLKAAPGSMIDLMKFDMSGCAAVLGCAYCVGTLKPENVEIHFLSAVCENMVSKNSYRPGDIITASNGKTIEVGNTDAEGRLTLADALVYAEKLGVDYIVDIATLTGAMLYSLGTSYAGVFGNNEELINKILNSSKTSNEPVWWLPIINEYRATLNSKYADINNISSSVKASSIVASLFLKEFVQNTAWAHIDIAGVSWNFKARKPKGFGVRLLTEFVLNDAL

Which AC50 (Escherichia coli [1]) does the source give for `CC(C)(C)OC(=O)NCCCCCNC(=O)c1[nH]cnc1C(=O)NC1CCN(C(=O)OC(C)(C)C)CC1` here?
Its AC50 is 235 µM (active).

For `Cn1c(=O)oc2cc(S(=O)(=O)NCCN3CCCCCC3)ccc21`, which AC50 (Escherichia coli [2]) is on record?
The AC50 was 24.2 µM (active).

Which results are given for `Cc1ccc(CNC(=O)COC(=O)c2cccnc2Cl)cc1`?
AC50 (Escherichia coli [1]): 73.1 µM (active); AC50 (Escherichia coli [2]): 29.3 µM (active)

For `c1coc(CN2CNc3nc4ccccc4n3C2)c1`, which AC50 (Escherichia coli [1]) is on record?
The AC50 was 101 µM (active).

And the AC50 (Escherichia coli [2])?
The AC50 was 79.4 µM (active).

Which results are given for `N=C(Cc1ccccc1)NOC(=O)c1cccc2ccccc12`?
EC50 [3]: 19.3 µM (active); EC50 [4]: 14 µM (active); EC50 [5]: > 180 µM (inactive); EC50 [6]: 0.717 µM (active)

With `Cc1ccc(/C=N/Nc2ccc(C(=O)O)cc2)s1` as the molecule, how does the EC50 [7] read?
Its EC50 is < 0.16 µM (active).

And the AC50 [8]?
The AC50 was 0.721 µM (active).

And the AC50 [9]?
Its AC50 is 37.8 µM (active).

And the IC50 [10]?
The IC50 was 89.2 µM (active).

And the AC50 [11]?
Its AC50 is 3.3 µM (active).

What about the IC50 (Leucine aminopeptidase) of the same molecule?
Its IC50 is 20.4 µM (active).

With `CCC(=O)O[C@]1(C(=O)CCl)[C@@H](C)C[C@H]2[C@@H]3CCC4=CC(=O)C=C[C@]4(C)[C@@]3(F)[C@@H](O)C[C@@]21C` [CLOBETASOL PROPIONATE] as the molecule, how does the AC50 [8] read?
Its AC50 is > 52 µM (inactive).
